Laboratory results as given in US20240116985A1, “STAPLED PEPTIDES AND METHODS THEREOF” (priority 2020, published 2024).
pIC50: −log10 of the molar value.

Target: T1, full-length beta-Catenin (Uniprot ID P35222) (Homo sapiens, UniProt P35222)
T1 construct: 10 nM full-length beta-Catenin (Uniprot ID P35222)
T1 sequence (P35222 1-781): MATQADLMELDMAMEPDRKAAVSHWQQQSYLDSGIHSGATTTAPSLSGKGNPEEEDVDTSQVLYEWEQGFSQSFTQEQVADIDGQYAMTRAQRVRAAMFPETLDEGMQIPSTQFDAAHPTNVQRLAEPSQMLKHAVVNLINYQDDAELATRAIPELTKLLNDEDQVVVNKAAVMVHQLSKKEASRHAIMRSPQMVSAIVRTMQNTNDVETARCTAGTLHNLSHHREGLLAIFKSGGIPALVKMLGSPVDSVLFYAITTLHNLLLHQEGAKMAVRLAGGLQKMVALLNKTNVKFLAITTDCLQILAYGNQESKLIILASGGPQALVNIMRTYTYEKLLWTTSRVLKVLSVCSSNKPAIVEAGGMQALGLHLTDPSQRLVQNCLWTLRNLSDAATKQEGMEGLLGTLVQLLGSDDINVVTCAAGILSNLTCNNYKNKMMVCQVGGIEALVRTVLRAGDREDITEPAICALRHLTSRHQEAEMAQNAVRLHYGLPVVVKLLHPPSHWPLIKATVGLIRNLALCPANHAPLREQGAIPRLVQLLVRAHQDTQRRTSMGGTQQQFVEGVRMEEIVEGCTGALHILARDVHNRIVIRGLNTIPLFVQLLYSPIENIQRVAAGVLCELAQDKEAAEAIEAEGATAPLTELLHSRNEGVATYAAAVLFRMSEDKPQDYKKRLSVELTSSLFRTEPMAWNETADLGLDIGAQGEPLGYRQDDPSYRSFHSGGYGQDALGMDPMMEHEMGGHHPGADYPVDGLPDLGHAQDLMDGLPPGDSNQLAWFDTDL
Assay: Fluorescence polarization IC50 (beta-catenin / 5FAM-TCF4 10-53 competition)
Assay type: binding
Settings: fluorescence polarization; read-out: beta-Catenin FP IC50

Compound	pIC50
CC(=O)N1CCC[C@]12CC=CCCCC1(CCCC=CCCCOC(=O)N3CC[C@@](C(=O)N[C@@H](Cc4ccsc4)C(=O)N[C@@H](Cc4cccc5ccccc45)C(=O)N[C@@H](CCC(N)=O)C(N)=O)(C3)NC(=O)[C@H](CC(N)=O)NC(=O)[C@H](Cc3ccccc3)NC(=O)[C@H](C)NC(=O)[C@H](C)NC(=O)[C@H]([C@@H](C)O)NC(=O)[C@H](CC(N)=O)NC1=O)NC(=O)[C@H](CC(C)(C)C)NC(=O)[C@H](CC(=O)O)NC2=O (stereo partly drawn) [I-1870, Ac-PL3-Asp-Npg-B5-Asn-Thr-Ala-Ala-Phe-Asn-PyrS2-3Thi-1NapA-Gln-NH2]	5.82
CC(=O)N1CCC[C@]12CC=CCCCC1(CCCC=CCCCOC(=O)N3CC[C@@](C(=O)N[C@@H](Cc4ccsc4)C(=O)N[C@@H](Cc4cccc5ccccc45)C(=O)N[C@@H](CCC(N)=O)C(N)=O)(C3)NC(=O)[C@H](CC(N)=O)NC(=O)[C@H](Cc3ccccc3)NC(=O)[C@H](C)NC(=O)[C@H](C)NC(=O)[C@H]([C@@H](C)O)NC(=O)[C@H](CC(N)=O)NC1=O)NC(=O)[C@H](CC(C)(C)C)NC(=O)[C@H](CC(=O)O)NC2=O (stereo partly drawn) [I-1871, Ac-PL3-Asp-Npg-B5-Asn-Thr-Ala-Ala-Phe-Asn-PyrS2-3Thi-1NapA-Gln-NH2]	5.75
CC(=O)N1CCC[C@]12CC=CCCCC1(CCCC=CCCCOC(=O)N3CC[C@@](C(=O)N[C@@H](Cc4ccsc4)C(=O)N[C@@H](Cc4ccc5ccccc5c4)C(=O)N[C@@H](CCC(N)=O)C(N)=O)(C3)NC(=O)[C@H](CC(N)=O)NC(=O)[C@H](Cc3ccccc3)NC(=O)[C@H](C)NC(=O)[C@H](C)NC(=O)[C@H]([C@@H](C)O)NC(=O)[C@H](CC(N)=O)NC1=O)NC(=O)[C@H](CC(C)(C)C)NC(=O)[C@H](CC(=O)O)NC2=O (stereo partly drawn) [I-1873, Ac-PL3-Asp-Npg-B5-Asn-Thr-Ala-Ala-Phe-Asn-PyrS2-3Thi-2NapA-Gln-NH2]	5.83
CC(=O)N1CCC[C@]12CC=CCCCC1(CCCC=CCCCOC(=O)N3CC[C@@](C(=O)N[C@@H](Cc4ccsc4)C(=O)N[C@@H](Cc4c[nH]c5ccccc45)C(=O)N[C@@H](CCC(N)=O)C(N)=O)(C3)NC(=O)[C@H](CC(N)=O)NC(=O)[C@H](Cc3ccccc3)NC(=O)[C@H](C)NC(=O)[C@H](C)NC(=O)[C@H]([C@@H](C)O)NC(=O)[C@H](CC(N)=O)NC1=O)NC(=O)[C@H](CC(C)(C)C)NC(=O)[C@H](CC(=O)O)NC2=O (stereo partly drawn) [I-1876, Ac-PL3-Asp-Npg-B5-Asn-Thr-Ala-Ala-Phe-Asn-PyrS2-3Thi-Trp-Gln-NH2]	5.87
CC(=O)N1CCC[C@]12CC=CCCCC1(CCCC=CCCCOC(=O)N3CC[C@@](C(=O)N[C@@H](Cc4ccsc4)C(=O)N[C@@H](Cc4c[nH]c5ccccc45)C(=O)N[C@@H](CCC(N)=O)C(N)=O)(C3)NC(=O)[C@H](CC(N)=O)NC(=O)[C@H](Cc3ccccc3)NC(=O)[C@H](C)NC(=O)[C@H](C)NC(=O)[C@H]([C@@H](C)O)NC(=O)[C@H](CC(N)=O)NC1=O)NC(=O)[C@H](CC(C)(C)C)NC(=O)[C@H](CC(=O)O)NC2=O (stereo partly drawn) [I-1877, Ac-PL3-Asp-Npg-B5-Asn-Thr-Ala-Ala-Phe-Asn-PyrS2-3Thi-Trp-Gln-NH2]	5.82
CC(=O)N1CCC[C@]12CC=CCCCC1(CCCC=CCCCOC(=O)N3CC[C@@](C(=O)N[C@@H](Cc4ccsc4)C(=O)N[C@@H](Cc4csc5ccccc45)C(=O)N[C@H](C(N)=O)C(C)C)(C3)NC(=O)[C@H](CC(N)=O)NC(=O)[C@H](Cc3ccccc3)NC(=O)[C@H](C)NC(=O)[C@H](C)NC(=O)[C@H]([C@@H](C)O)NC(=O)[C@H](CC(N)=O)NC1=O)NC(=O)[C@H](CC(C)(C)C)NC(=O)[C@H](CC(=O)O)NC2=O (stereo partly drawn) [I-1878, Ac-PL3-Asp-Npg-B5-Asn-Thr-Ala-Ala-Phe-Asn-PyrS2-3Thi-BztA-Val-NH2]	6.34
CC(=O)N1CCC[C@]12CC=CCCCC1(CCCC=CCCCOC(=O)N3CC[C@@](C(=O)N[C@@H](Cc4ccsc4)C(=O)N[C@@H](Cc4csc5ccccc45)C(=O)N[C@H](C(N)=O)C(C)C)(C3)NC(=O)[C@H](CC(N)=O)NC(=O)[C@H](Cc3ccccc3)NC(=O)[C@H](C)NC(=O)[C@H](C)NC(=O)[C@H]([C@@H](C)O)NC(=O)[C@H](CC(N)=O)NC1=O)NC(=O)[C@H](CC(C)(C)C)NC(=O)[C@H](CC(=O)O)NC2=O (stereo partly drawn) [I-1879, Ac-PL3-Asp-Npg-B5-Asn-Thr-Ala-Ala-Phe-Asn-PyrS2-3Thi-BztA-Val-NH2]	6.25
CC(=O)N1CCC[C@]12CC=CCCCC1(CCCC=CCCCOC(=O)N3CC[C@@](C(=O)N[C@@H](Cc4ccsc4)C(=O)N[C@@H](Cc4csc5ccccc45)C(=O)N[C@@H](CC(C)C)C(N)=O)(C3)NC(=O)[C@H](CC(N)=O)NC(=O)[C@H](Cc3ccccc3)NC(=O)[C@H](C)NC(=O)[C@H](C)NC(=O)[C@H]([C@@H](C)O)NC(=O)[C@H](CC(N)=O)NC1=O)NC(=O)[C@H](CC(C)(C)C)NC(=O)[C@H](CC(=O)O)NC2=O (stereo partly drawn) [I-1880, Ac-PL3-Asp-Npg-B5-Asn-Thr-Ala-Ala-Phe-Asn-PyrS2-3Thi-BztA-Leu-NH2]	6.06
CC(=O)N1CCC[C@]12CC=CCCCC1(CCCC=CCCCOC(=O)N3CC[C@@](C(=O)N[C@@H](Cc4ccsc4)C(=O)N[C@@H](Cc4csc5ccccc45)C(=O)N[C@@H](CC(C)C)C(N)=O)(C3)NC(=O)[C@H](CC(N)=O)NC(=O)[C@H](Cc3ccccc3)NC(=O)[C@H](C)NC(=O)[C@H](C)NC(=O)[C@H]([C@@H](C)O)NC(=O)[C@H](CC(N)=O)NC1=O)NC(=O)[C@H](CC(C)(C)C)NC(=O)[C@H](CC(=O)O)NC2=O (stereo partly drawn) [I-1881, Ac-PL3-Asp-Npg-B5-Asn-Thr-Ala-Ala-Phe-Asn-PyrS2-3Thi-BztA-Leu-NH2]	6.13

Results, then the compound that gave them:

pIC50	Compound
8.00	CC(=O)N1CCC[C@]12CC=CCCCC1(CCCC=CCCCOC(=O)N3CC[C@@](C(=O)N[C@@H](Cc4ccsc4)C(=O)N[C@@H](Cc4csc5ccccc45)C(=O)N[C@@H](CCC(N)=O)C(N)=O)(C3)NC(=O)[C@H](Cn3cc(CN4CCNCC4)nn3)NC(=O)[C@H](Cc3ccccc3)NC(=O)[C@H](C)NC(=O)[C@H](C)NC(=O)[C@H](CN(CC(=O)O)CC(F)(F)F)NC(=O)[C@H](CC(=O)O)NC1=O)NC(=O)[C@H](CC(C)(C)C)NC(=O)[C@H](CC(=O)O)NC2=O (stereo partly drawn) [I-1863, Ac-PL3-Asp-Npg-B5-Asp-TfeGA-Ala-Ala-Phe-[CH2Ppz]TriAzDap-PyrS2-3Thi-BztA-Gln-NH2]
7.92	CC(=O)N1CCC[C@]12CC=CCCCC1(CCCC=CCCCOC(=O)N3CC[C@@](C(=O)N[C@@H](Cc4ccsc4)C(=O)N[C@@H](Cc4csc5ccccc45)C(=O)N[C@@H](CCC(N)=O)C(N)=O)(C3)NC(=O)[C@H](Cn3cc(CN4CCS(=O)(=O)CC4)nn3)NC(=O)[C@H](Cc3ccccc3)NC(=O)[C@H](C)NC(=O)[C@H](C)NC(=O)[C@H](CN(CC(=O)O)CC(F)(F)F)NC(=O)[C@H](CC(=O)O)NC1=O)NC(=O)[C@H](CC(C)(C)C)NC(=O)[C@H](CC(=O)O)NC2=O (stereo partly drawn) [I-1868, Ac-PL3-Asp-Npg-B5-Asp-TfeGA-Ala-Ala-Phe-[SO2MorphCH2]TriAzDap-PyrS2-3Thi-BztA-Gln-NH2]
7.92	CC(=O)N1CCC[C@]12CC=CCCCC1(CCCC=CCCCOC(=O)N3CC[C@@](C(=O)N[C@@H](Cc4ccsc4)C(=O)N[C@@H](Cc4csc5ccccc45)C(=O)N[C@@H](CCC(N)=O)C(N)=O)(C3)NC(=O)[C@H](Cn3cc(CN4CCS(=O)(=O)CC4)nn3)NC(=O)[C@H](Cc3ccccc3)NC(=O)[C@H](C)NC(=O)[C@H](C)NC(=O)[C@H](CN(CC(=O)O)CC(F)(F)F)NC(=O)[C@H](CC(=O)O)NC1=O)NC(=O)[C@H](CC(C)(C)C)NC(=O)[C@H](CC(=O)O)NC2=O (stereo partly drawn) [I-1869, Ac-PL3-Asp-Npg-B5-Asp-TfeGA-Ala-Ala-Phe-[SO2MorphCH2]TriAzDap-PyrS2-3Thi-BztA-Gln-NH2]
6.40	CC(=O)N1CCC[C@]12CC=CCCCC1(CCCC=CCCCOC(=O)N3CC[C@@](C(=O)N[C@@H](Cc4ccsc4)C(=O)N[C@@H](Cc4csc5ccccc45)C(=O)N[C@@H](CCC(N)=O)C(N)=O)(C3)NC(=O)[C@H](CCCNC(=N)N)NC(=O)[C@H](Cc3ccccc3)NC(=O)[C@H](C)NC(=O)[C@H](C)NC(=O)[C@H]([C@@H](C)O)NC(=O)[C@H](CC(N)=O)NC1=O)NC(=O)[C@H](CC(C)(C)C)NC(=O)[C@H](CC(=O)O)NC2=O (stereo partly drawn) [I-1882, Ac-PL3-Asp-Npg-B5-Asn-Thr-Ala-Ala-Phe-Arg-PyrS2-3Thi-BztA-Gln-NH2]
6.05	CC(=O)N1CCC[C@]12CC=CCCCC1(CCCC=CCCCOC(=O)N3CC[C@@](C(=O)N[C@@H](Cc4ccsc4)C(=O)N[C@@H](Cc4csc5ccccc45)C(=O)N[C@@H](CCC(N)=O)C(N)=O)(C3)NC(=O)[C@H](CCCNC(=N)N)NC(=O)[C@H](Cc3ccccc3)NC(=O)[C@H](C)NC(=O)[C@H](C)NC(=O)[C@H]([C@@H](C)O)NC(=O)[C@H](CC(N)=O)NC1=O)NC(=O)[C@H](CC(C)(C)C)NC(=O)[C@H](CC(=O)O)NC2=O (stereo partly drawn) [I-1883, Ac-PL3-Asp-Npg-B5-Asn-Thr-Ala-Ala-Phe-Arg-PyrS2-3Thi-BztA-Gln-NH2]
